Experiments:
KRas^G12D = target: T1, KRas^G12D (Homo sapiens, UniProt P01116, G12D); experiment: KRas binding assay (TR-FRET tracer displacement), KRas G12D
T1 construct: Biotinylated KRas (corresponding to amino acids 1-169, produced at Accelegan Inc.); biotin (biotinylated); purchased Accelegan Inc

[1] = test system: KRas-mediated phosphorylation of ERK in MKN1 cells; experiment: Inhibition of KRas-mediated phosphorylation of ERK (Cisbio HTRF pERK), MKN1 cells; assay type: cell-based; conditions: Homo sapiens, MKN-1
How it was run: (§1)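 Phospho-ERK is quantified by HTRF with the Advanced pERK kit. Cells go in at 6,000/well in RPMI plus 10% FBS overnight at 37° C. under 5% CO2, with a 4-hour covered room-temperature incubation ahead of the read.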

[2] = test system: KRas-mediated phosphorylation of ERK in H358 cells; experiment: Inhibition of KRas-mediated phosphorylation of ERK (Cisbio HTRF pERK), H358 cells; assay type: cell-based; conditions: Homo sapiens, NCI-H358, HTRF pERK
How it was run: (§2)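 Each compound was tested at 10 concentrations, threefold apart with 10 uM the highest, for 3 hrs on 6,000 seeded cells; final DMSO was 0.8% and Trametinib (0.2 uM) served as Min control. Lysed cells were analysed for pERK by HTRF.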

[3] = test system: KRas-mediated phosphorylation of ERK in H727 cells; experiment: Inhibition of KRas-mediated phosphorylation of ERK (Cisbio HTRF pERK), H727 cells; assay type: cell-based; conditions: Homo sapiens, NCI-H727, H727 cells; HTRF pERK
How it was run: as §2

[4] = test system: KRas-mediated phosphorylation of ERK in HCT116 cells; experiment: Inhibition of KRas-mediated phosphorylation of ERK (Cisbio HTRF pERK), HCT116 cells; assay type: cell-based; conditions: Homo sapiens, HCT-116, HTRF pERK
How it was run: (§3)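 A cell-based HTRF pERK assay: ten-point, threefold titrations beginning at 10 uM were applied for 3 hrs, with 0.2 uM Trametinib wells as the minimum control. Cells were lysed cold, and lysate was incubated with the antibody pair for 2 hrs before reading.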

KRas^G12S = target: T2, KRas^G12S (Homo sapiens, UniProt P01116, G12S); experiment: KRas binding assay (TR-FRET tracer displacement), KRas G12S; conditions: TR-FRET tracer displacement, KRas G12S
T2 construct: Biotinylated KRas (corresponding to amino acids 1-169, produced at Accelegan Inc.); biotin (biotinylated); purchased Accelegan Inc

[5] = test system: KRas-mediated phosphorylation of ERK in AsPC-1 cells; experiment: Inhibition of KRas-mediated phosphorylation of ERK (Cisbio HTRF pERK), AsPC-1 cells; assay type: cell-based; conditions: Homo sapiens, ASPC1, AsPC-1 cells; HTRF pERK
How it was run: as §2

[6] = test system: KRas-mediated phosphorylation of ERK in A549 cells; experiment: Inhibition of KRas-mediated phosphorylation of ERK (Cisbio HTRF pERK), A549 cells; assay type: cell-based; conditions: Homo sapiens, HTRF pERK
How it was run: as §3

KRas^G12V = target: T3, KRas^G12V (Homo sapiens, UniProt P01116, G12V); experiment: KRas binding assay (TR-FRET tracer displacement), KRas G12V
T3 construct: Biotinylated KRas (corresponding to amino acids 1-169, produced at Accelegan Inc.); biotin (biotinylated); purchased Accelegan Inc

KRas^G12C = target: T4, KRas^G12C (Homo sapiens, UniProt P01116, G12C); experiment: KRas binding assay (TR-FRET tracer displacement), KRas G12C; conditions: TR-FRET tracer displacement, KRas G12C
T4 construct: Biotinylated KRas (corresponding to amino acids 1-169, produced at Accelegan Inc.); biotin (biotinylated); purchased Accelegan Inc

[7] = test system: KRas-mediated phosphorylation of ERK in H460 cells; experiment: Inhibition of KRas-mediated phosphorylation of ERK (Cisbio HTRF pERK), H460 cells; assay type: cell-based; conditions: Homo sapiens, NCI-H460, HTRF pERK
How it was run: as §2

[8] = test system: KRas-mediated phosphorylation of ERK in PSN1 cells; experiment: Inhibition of KRas-mediated phosphorylation of ERK (Cisbio HTRF pERK), PSN1 cells; assay type: cell-based; conditions: Homo sapiens
How it was run: as §1

KRas^WT = target: T5, KRas^WT (Homo sapiens, UniProt P01116); experiment: KRas binding assay (TR-FRET tracer displacement), KRas WT; conditions: TR-FRET tracer displacement, KRas WT
T5 construct: Biotinylated KRas (corresponding to amino acids 1-169, produced at Accelegan Inc.); biotin (biotinylated); purchased Accelegan Inc
T5 sequence (P01116 1-169 isoform P01116-2): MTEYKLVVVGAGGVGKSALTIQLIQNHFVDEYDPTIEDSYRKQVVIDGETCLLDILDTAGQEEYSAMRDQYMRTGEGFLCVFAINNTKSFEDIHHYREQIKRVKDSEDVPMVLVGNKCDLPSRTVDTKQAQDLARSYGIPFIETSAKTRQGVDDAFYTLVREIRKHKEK

T2 sequence (P01116 1-169 isoform P01116-2 G12S): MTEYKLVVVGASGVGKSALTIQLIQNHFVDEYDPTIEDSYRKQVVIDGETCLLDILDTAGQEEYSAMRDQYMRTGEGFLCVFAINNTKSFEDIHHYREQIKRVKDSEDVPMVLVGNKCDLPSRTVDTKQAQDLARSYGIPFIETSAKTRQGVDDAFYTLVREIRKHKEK
T4 sequence (P01116 1-169 isoform P01116-2 G12C): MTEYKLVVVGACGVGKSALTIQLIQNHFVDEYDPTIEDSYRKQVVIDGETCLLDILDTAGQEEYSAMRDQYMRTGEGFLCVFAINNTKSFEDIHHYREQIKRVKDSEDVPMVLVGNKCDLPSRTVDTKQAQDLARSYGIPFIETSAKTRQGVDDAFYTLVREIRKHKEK
T3 sequence (P01116 1-169 isoform P01116-2 G12V): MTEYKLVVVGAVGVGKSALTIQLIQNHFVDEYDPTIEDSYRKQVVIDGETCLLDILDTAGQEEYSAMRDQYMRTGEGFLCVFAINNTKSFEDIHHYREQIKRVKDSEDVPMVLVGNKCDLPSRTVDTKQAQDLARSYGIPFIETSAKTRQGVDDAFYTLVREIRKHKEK
T1 sequence (P01116 1-169 isoform P01116-2 G12D): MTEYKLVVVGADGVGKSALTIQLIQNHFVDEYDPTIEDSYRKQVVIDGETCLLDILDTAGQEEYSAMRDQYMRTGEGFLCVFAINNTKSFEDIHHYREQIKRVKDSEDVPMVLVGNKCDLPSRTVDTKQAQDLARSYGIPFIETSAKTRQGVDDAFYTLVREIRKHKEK

| Structure (SMILES) | IC50 (KRas^G12D) | IC50 [1] | IC50 [2] | IC50 [3] | IC50 [4] | IC50 (KRas^G12S) | IC50 [5] | IC50 [6] | IC50 (KRas^G12V) | IC50 (KRas^G12C) | IC50 [7] | IC50 [8] | IC50 (KRas^WT) |
| --- | --- | --- | --- | --- | --- | --- | --- | --- | --- | --- | --- | --- | --- |
| CCc1c(F)ccc2cc(O)cc(-c3ncc4c(N5CCC[C@@](C)(O)C5)nc(OC[C@@]56CCCN5CC(=C(F)F)C6)nc4c3F)c12 (single isomer, unassigned) [Example 918] | < 2 nM | 1 nM | 3 nM | 17 nM | 12 nM | < 2 nM | 3 nM | 4 nM | < 2 nM | < 2 nM | 5 nM | 490 nM | < 2 nM |
| CCc1c(F)ccc2cc(O)cc(-c3ncc4c(N5CCC[C@@](C)(O)C5)nc(OC[C@]56CCCN5CC(=C(F)F)C6)nc4c3F)c12 (single isomer, unassigned) [Example 919] | < 2 nM | 3 nM | 14 nM | 43 nM | 37 nM | < 2 nM | 14 nM | 19 nM | < 2 nM | < 2 nM | 10 nM | 2480 nM | < 2 nM |
| C[C@@H]1C[C@@H]1c1c(Cl)cc(O)cc1-c1ncc2c(N3C[C@@H]4C[C@H](C3)[C@H](O)C4)nc(OC[C@@]34CCCN3C[C@H](F)C4)nc2c1F (stereo in doubt) [Example 920, (1R,5R,6R)-3-(7-(3-chloro-5-hydroxy-2-(cis-2-methylcyclopropyl)phenyl)-8-fluoro-2-(((2R,7aS)-2-fluorotetrahydro-1H-pyrrolizin-7a(5H)-yl)methoxy)pyrido[4,3-d]pyrimidin-4-yl)-3-azabicyclo[3.2.1]octan-6-ol] | 4 nM | 4 nM | 12 nM | 42 nM | 44 nM | < 2 nM | 77 nM | 19 nM | < 2 nM | < 2 nM | 15 nM | 2060 nM | 2 nM |
| C[C@@H]1C[C@@H]1c1c(Cl)cc(O)cc1-c1ncc2c(N3CCCC4(CNS(=O)(=O)N4)C3)nc(OC[C@@]34CCCN3C[C@H](F)C4)nc2c1F (stereo in doubt) [Example 929, 7-(7-(3-chloro-5-hydroxy-2-(cis-2-methylcyclopropyl)phenyl)-8-fluoro-2-(((2R,7aS)-2-fluorotetrahydro-1H-pyrrolizin-7a(5H)-yl)methoxy)pyrido[4,3-d]pyrimidin-4-yl)-2-thia-1,3,7-triazaspiro[4.5]decane 2,2-dioxide] | 2 nM | 17 nM | 14 nM | 163 nM | 137 nM | < 2 nM | 60 nM | 84 nM | < 2 nM | < 2 nM | 41 nM | 397 nM | < 2 nM |
| CCc1c(F)ccc2cc(O)cc(-c3ncc4c(N5C[C@@H]6C[C@H](C5)[C@H](O)C6)nc(OCC56CCCN5C/C(=C\F)C6)nc4c3F)c12 (stereo partly drawn) [Example 793, (1R,5R,6R)-3-(7-(8-ethyl-7-fluoro-3-hydroxynaphthalen-1-yl)-8-fluoro-2-(((Z)-2-(fluoromethylene)tetrahydro-1H-pyrrolizin-7a(5H)-yl)methoxy)pyrido[4,3-d]pyrimidin-4-yl)-3-azabicyclo[3.2.1]octan-6-ol] | < 2 nM | 0.3 nM | 1 nM | 3 nM | 9 nM | < 2 nM | 3 nM | 1 nM | < 2 nM | < 2 nM | 2 nM | 246 nM | < 2 nM |
| CCc1c(F)ccc2cc(O)cc(-c3ncc4c(N5CCC[C@]6(C5)NC(=O)NC6=O)nc(OCC56CCCN5C/C(=C\F)C6)nc4c3F)c12 (stereo partly drawn) [Example 794, (5R)-7-(7-(8-ethyl-7-fluoro-3-hydroxynaphthalen-1-yl)-8-fluoro-2-(((Z)-2-(fluoromethylene)tetrahydro-1H-pyrrolizin-7a(5H)-yl)methoxy)pyrido[4,3-d]pyrimidin-4-yl)-1,3,7-triazaspiro[4.5]decane-2,4-dione] | < 2 nM | 1 nM | 5 nM | 27 nM | 26 nM | < 2 nM | 32 nM | 12 nM | < 2 nM | < 2 nM | 6 nM | 37 nM | < 2 nM |
| CCc1c(F)ccc2cc(O)cc(-c3ncc4c(N5CCCn6nc(C(=O)N(C)C)cc6C5)nc(OCC56CCCN5C/C(=C\F)C6)nc4c3F)c12 (stereo not shown) [Example 795, (Z)-5-(7-(8-ethyl-7-fluoro-3-hydroxynaphthalen-1-yl)-8-fluoro-2-((2-(fluoromethylene)tetrahydro-1H-pyrrolizin-7a(5H)-yl)methoxy)pyrido[4,3-d]pyrimidin-4-yl)-N,N-dimethyl-5,6,7,8-tetrahydro-4H-pyrazolo[1,5-a][1,4]diazepine-2-carboxamide] | < 2 nM | 4 nM | 4 nM | 11 nM | 130 nM | < 2 nM | 2 nM | 41 nM | < 2 nM | < 2 nM | 28 nM | 4790 nM | < 2 nM |
| CCc1c(F)ccc2cc(O)cc(-c3ncc4c(N5C[C@@H]6C[C@H](C5)[C@H](O)C6)nc(OCC56CCCN5CC(=C(F)F)C6)nc4c3F)c12 (stereo partly drawn) [Example 798, (1R,5R,6R)-3-(2-((2-(difluoromethylene)tetrahydro-1H-pyrrolizin-7a(5H)-yl)methoxy)-7-(8-ethyl-7-fluoro-3-hydroxynaphthalen-1-yl)-8-fluoropyrido[4,3-d]pyrimidin-4-yl)-3-azabicyclo[3.2.1]octan-6-ol] | < 2 nM | 0.3 nM | 3 nM | 19 nM | 25 nM | < 2 nM | 17 nM | 3 nM | < 2 nM | < 2 nM | 4 nM | 946 nM | < 2 nM |
| C=C1CN2CC(=C)CC2(COc2nc(N3CCC[C@@](C)(O)C3)c3cnc(-c4cc(O)cc5ccc(F)c(CC)c45)c(F)c3n2)C1 [Example 799, (R)-1-(2-((2,6-dimethylenetetrahydro-1H-pyrrolizin-7a(5H)-yl)methoxy)-7-(8-ethyl-7-fluoro-3-hydroxynaphthalen-1-yl)-8-fluoropyrido[4,3-d]pyrimidin-4-yl)-3-methylpiperidin-3-ol] | < 2 nM | 0.9 nM | 4 nM | 20 nM | 30 nM | < 2 nM | 7 nM | 9 nM | < 2 nM | < 2 nM | 8 nM | 988 nM | < 2 nM |
| C=C1CN2CCCC2(COc2nc(N3C[C@@H]4C[C@H](C3)[C@H](O)C4)c3cnc(-c4cc(O)cc5ccc(F)c(CC)c45)c(F)c3n2)C1 (stereo partly drawn) [Example 800, (1R,5R,6R)-3-(7-(8-ethyl-7-fluoro-3-hydroxynaphthalen-1-yl)-8-fluoro-2-((2-methylenetetrahydro-1H-pyrrolizin-7a(5H)-yl)methoxy)pyrido[4,3-d]pyrimidin-4-yl)-3-azabicyclo[3.2.1]octan-6-ol] | < 2 nM | 0.3 nM | 1 nM | 3 nM | 13 nM | < 2 nM | 6 nM | 3 nM | < 2 nM | < 2 nM | 3 nM | 587 nM | < 2 nM |
| CCc1c(F)ccc2cc(O)cc(-c3ncc4c(N5C[C@@H]6C[C@H](C5)[C@H](O)C6)nc(OCC56CCCN5C(C)CC6)nc4c3F)c12 (stereo partly drawn) [Example 928, (1R,5R,6R)-3-(7-(8-ethyl-7-fluoro-3-hydroxynaphthalen-1-yl)-8-fluoro-2-((3-methyltetrahydro-1H-pyrrolizin-7a(5H)-yl)methoxy)pyrido[4,3-d]pyrimidin-4-yl)-3-azabicyclo[3.2.1]octan-6-ol] | 2 nM | 3 nM | – | 33 nM | – | < 2 nM | 74 nM | – | < 2 nM | < 2 nM | – | 2840 nM | < 2 nM |

From patent US20260015350A1, “AZAQUINAZOLINE PAN-KRAS INHIBITORS” (Mirati Therapeutics, Inc., priority 2022, published 2026)
